The nature of data set [1]: simple acute toxicity test, intravenous injection to mouse. It counts as in vivo, ddy male mouse. Conditions: mouse, in vivo, observed 7 days, 3 mice, read-out: Final death rate (converted). As to the method: (§1) Simple acute toxicity test of the agent to be tested due to intravenous injection to mouse was effected as shown below.
(§2) • (1) Agents to be tested Lithium salt, potassium salt, barium salt and magnesium salt of N-acetylneuraminic acid (all available from MECT Corporation) were used. • (2) Animal for experiment ddy male mouse Weight at initial of the test : 17.7 to 21.1 g Animal number per one level : 3 • (3) Room temperature : 23 ± 1 °C, Humidity : 55 ± 7 % • (4) Administration route : intravenous • (5) Administration method and amount thereof The above agent to be tested was dissolved with a physiological saline solution, and that which is prepared so as to become the administration amount of 0.2 ml per 20 g of mouse weight was injected into a tail vein. An administered amount was made to three levels of 500, 1000 and 2000 mg/kg. • (6) Observation of general condition and death condition Observations of the general condition and presence or absence of death were conducted from immediately after administration to after 7 days.

A further data set concerns ddy male mouse. The description is as above. It counts as in vivo. Conditions: 3 mice; for Final death rate: observed 7 days. The protocol: as §1, §2
The test system of a further data set is passive Arthus reaction. As to the kind of experiment: passive Arthus reaction (bleeding of skin). The data set is classed as in vivo, Male Hartley guinea pig. The protocol:
Male Hartley guinea pig weighing 300 to 400 g was used.
According to the conventional method, Anti-OA (rabbit) was prepared. That is, by using New Zealand strain rabbits having a weight of 2.0 to 2.2 kg, 1 ml of an emulsion comprising 20 mg of OA and Freund complete adjuvant (available from DIFCO LABORATORIES) was subcutaneously injected to back side portion and active sensitization was effected for total 4 times for every two weeks.
After two weeks from the final sensitizing date, blood was gathered from common carotid artery and after separation of antiserum, it was stored under freezing at -20°C by the usage for experiment.
The passive Arthus reaction was effected according to the method of Katayama et al. [S. Katayama, et al., Arzneim.-Forsh., vol. 31, p. […] However, in order to cause sufficient reaction, change were added to a cocentration of OA solution. That is, sensitization was effected by intravenously injecting 1 ml of antiserum stock solution and 30 minutes after, the reaction was caused by intradermally injecting respective 0.05 ml of OA solutions, each containing 0.025 mg and 0.05 mg of OA respectively, to each one portion of an abdominal part and total two portions of guinea pig at which hair was cut at the day before. At this time, a physiological saline solution was intradermal injected simultaneously in the same manner as a blank. […] And, the value was calibrated by the blank to be made as the experimental results.
1, 5 or 20 mg/kg of sodium N-acetylneuraminate, or physiological saline solution (1 mg/kg) as a control was intravenously injected before 30 minutes of antigen-challenge or immediately after sensitization.
Also, Student's t-test was employed for significant test and p < 0.05 was made as statistically significant.

Data set [2] is described as follows: acute toxicity test, guinea pig. Conditions: in vivo, iv, 14 days observed, read-out: LD₅₀. The source says:
(§3) Acute toxicity tests of sodium N-acetylneuraminate against mouse, rat and guinea pig due to oral, subcutaneous injection, intraperitoneal injection, intravenous injection and inhalation were effected as shown below. • (1) Animals to be tested ICR mouse 6 weeks old SD rat 6 weeks old Hartley guinea pig 6 weeks old • (2) Chemicals concentration 20 % (w/v) dissolved in distilled water • (3) Animal number per one level Ten • (4) Terms observed 14 days • (5) Calculation method of LD₅₀ Probit method

A short description of data set [3]: acute toxicity test, mouse. It counts as in vivo. The note with it: in vivo, male, 14 days observed, read-out: LD₅₀.
Description: as §3

Another data set relates to ICR mouse. The experiment in a line: acute toxicity test, mouse. It counts as in vivo. Conditions: female, 14 days observed.
Description: as §3

A short description of another data set: acute toxicity test, rat. Conditions: in vivo, male, 14 days observed, read-out: LD₅₀. It counts as in vivo.
Description: as §3
(§4) Inhalation is effected by exposing powder to be tested for one hour.

In a further data set the test system is SD rat. As to the kind of experiment: acute toxicity test, rat. The data set is classed as in vivo.
Description: as §3, §4

Where two headings read alike, the source gives them in different places.

With `CC(=O)NC1C(O)CC(O)(C(=O)O)OC1C(O)C(O)CO` (stereo not shown) [Magnesium N-acetylneuraminate], the mortality at 168 h in data set [1] (1000 mg/kg intravenous) and in data set [1] (2000 mg/kg intravenous) was 100% each time.
On to `CC(=O)N[C@H]1[C@H]([C@H](O)[C@H](O)CO)OC(O)(C(=O)[O-])C[C@@H]1O.[Li+]` (stereo partly shown) [Lithium N-acetylneuraminate], for which the “Died number with a lapse of time” value is recorded as 0 in the data set on ddy male mouse (500 mg/kg intravenous, 1 hrs); 0 in the data set with ddy male mouse (500 mg/kg intravenous, 3 hrs); 0 in the data set on ddy male mouse (500 mg/kg intravenous, 6 hrs); 0 in the data set with ddy male mouse (500 mg/kg intravenous, 24 hrs); 0 in the data set with ddy male mouse (500 mg/kg intravenous, 2 days); 0 in the data set with ddy male mouse (500 mg/kg intravenous, 3 days). Also, the “Died number with a lapse of time” value in the data set on ddy male mouse (500 mg/kg intravenous, 4 days) came out at 0; in the data set with ddy male mouse (500 mg/kg intravenous, 5 days) it was 0; in the data set with ddy male mouse (500 mg/kg intravenous, 6 days) it was 0; with ddy male mouse (500 mg/kg intravenous, 7 days) it was 0; in the data set on ddy male mouse (1000 mg/kg intravenous, 1 hrs), 0; in the data set on ddy male mouse (1000 mg/kg intravenous, 3 hrs) it was 0. Moreover, the “Died number with a lapse of time” value with ddy male mouse (1000 mg/kg intravenous, 6 hrs) is 0; in the data set on ddy male mouse (1000 mg/kg intravenous, 24 hrs), 0; in the data set with ddy male mouse (1000 mg/kg intravenous, 2 days), 0; in the data set with ddy male mouse (1000 mg/kg intravenous, 3 days) it was 0; in the data set on ddy male mouse (1000 mg/kg intravenous, 4 days), 0; in the data set on ddy male mouse (1000 mg/kg intravenous, 5 days), 0. Besides, the “Died number with a lapse of time” value with ddy male mouse (1000 mg/kg intravenous, 6 days) is 0; with ddy male mouse (1000 mg/kg intravenous, 7 days) it was 0; with ddy male mouse (2000 mg/kg intravenous, 1 hrs), 0; in the data set on ddy male mouse (2000 mg/kg intravenous, 3 hrs), 0; with ddy male mouse (2000 mg/kg intravenous, 6 hrs), 0; with ddy male mouse (2000 mg/kg intravenous, 24 hrs), 0. Moreover, the “Died number with a lapse of time” value was 0 in the data set on ddy male mouse (2000 mg/kg intravenous, 2 days); 0 in the data set on ddy male mouse (2000 mg/kg intravenous, 3 days); 0 in the data set on ddy male mouse (2000 mg/kg intravenous, 4 days); 0 in the data set with ddy male mouse (2000 mg/kg intravenous, 5 days); 0 in the data set on ddy male mouse (2000 mg/kg intravenous, 6 days); 0 in the data set on ddy male mouse (2000 mg/kg intravenous, 7 days). The Final death rate with ddy male mouse (500 mg/kg intravenous), in the data set with ddy male mouse (1000 mg/kg intravenous) and in the data set on ddy male mouse (2000 mg/kg intravenous) was 0/3 in each case.
Consider `CC(=O)N[C@H]1[C@H]([C@H](O)[C@H](O)CO)OC(O)(C(=O)O)C[C@@H]1O` (stereo partly shown) [N-acetylneuraminic acid], for which, in the data set with passive Arthus reaction (general statement, in vivo), the “inhibiting effect to Arthus reaction” value is “has inhibiting effect to Arthus reaction”.
In the case of `CC(=O)N[C@H]1[C@H]([C@H](O)[C@H](O)CO)OC(O)(C(=O)[O-])C[C@@H]1O.[Na+]` (stereo partly shown), the LD50 at 336 h in data set [2] is more than 5000 mg/kg; in data set [3] (ip, i.p.), more than 5000 mg/kg; in data set [3] (iv, i.v.) it was more than 5000 mg/kg; in data set [3] (po, p.o.) it was more than 5000 mg/kg; in data set [3] (sc, s.c.), more than 5000 mg/kg; in “acute toxicity test, rat” (ip, i.p.), more than 5000 mg/kg. For the same compound, the LD50 at 336 h in the data set “acute toxicity test, rat” (iv, i.v.) is more than 5000 mg/kg; in the data set “acute toxicity test, rat” (po, p.o.) it was more than 5000 mg/kg; in “acute toxicity test, rat” (sc, s.c.), more than 5000 mg/kg. The LD₅₀ with ICR mouse (i.p.) is reported as >5,000 mg/kg; with ICR mouse (i.v.) it was >5,000 mg/kg; in the data set with ICR mouse (p.o.), >5,000 mg/kg; in the data set on ICR mouse (s.c.) it was >5,000 mg/kg; in the data set on SD rat (female, i.p., 14 days observed) it was >5,000 mg/kg; in the data set on SD rat (female, i.v., 14 days observed), >5,000 mg/kg. Moreover, the LD₅₀ was >4,000 mg/m³ with SD rat (female, inhalation, powder exposure for one hour); >5,000 mg/kg in the data set with SD rat (female, p.o., 14 days observed); >5,000 mg/kg in the data set with SD rat (female, s.c., 14 days observed); >4,000 mg/m³ in the data set on SD rat (male, inhalation, powder exposure for one hour). For the same compound, the bleeding of skin entry is “remarkable” with passive Arthus reaction (20 mg/kg intravenously, guinea pig); “depressed depending on an amount to be used” in the data set with passive Arthus reaction (1, 5 or 20 mg/kg intravenously, 30 minutes before antigen challenge, guinea pig, Fig. 1 and Fig. 2). The “inhibiting effect on bleeding of skin” value in the data set with passive Arthus reaction (24 hours after antigen challenge, guinea pig) was “continued even after 24 hours from antigen challenge”.
For `CC(=O)N[C@H]1[C@H]([C@H](O)[C@H](O)CO)OC(O)(C(=O)[O-])C[C@@H]1O.[K+]` (stereo partly shown) [Potassium N-acetylneuraminate], the mortality at 168 h in data set [1] (1000 mg/kg intravenous) and in data set [1] (2000 mg/kg intravenous) was 100% in each case. Besides, the “Died number with a lapse of time” value with ddy male mouse (500 mg/kg intravenous, 1 hrs) turned out to be 0; with ddy male mouse (500 mg/kg intravenous, 3 hrs), 0; with ddy male mouse (500 mg/kg intravenous, 6 hrs), 0; in the data set on ddy male mouse (500 mg/kg intravenous, 24 hrs), 0; in the data set with ddy male mouse (500 mg/kg intravenous, 2 days) it was 0; in the data set on ddy male mouse (500 mg/kg intravenous, 3 days), 0. Besides, the “Died number with a lapse of time” value with ddy male mouse (500 mg/kg intravenous, 4 days) came to 0; in the data set on ddy male mouse (500 mg/kg intravenous, 5 days), 0; in the data set on ddy male mouse (500 mg/kg intravenous, 6 days) it was 0; in the data set with ddy male mouse (500 mg/kg intravenous, 7 days) it was 0; in the data set with ddy male mouse (1000 mg/kg intravenous, 1 hrs) it was 3; in the data set on ddy male mouse (1000 mg/kg intravenous, 3 hrs) it was 0. The “Died number with a lapse of time” value is listed as 0 in the data set with ddy male mouse (1000 mg/kg intravenous, 6 hrs); 0 in the data set on ddy male mouse (1000 mg/kg intravenous, 24 hrs); 0 in the data set with ddy male mouse (1000 mg/kg intravenous, 2 days); 0 with ddy male mouse (1000 mg/kg intravenous, 3 days); 0 in the data set on ddy male mouse (1000 mg/kg intravenous, 4 days); 0 with ddy male mouse (1000 mg/kg intravenous, 5 days). Moreover, the “Died number with a lapse of time” value turned out to be 0 with ddy male mouse (1000 mg/kg intravenous, 6 days); 0 with ddy male mouse (1000 mg/kg intravenous, 7 days); 3 in the data set with ddy male mouse (2000 mg/kg intravenous, 1 hrs); 0 in the data set with ddy male mouse (2000 mg/kg intravenous, 3 hrs); 0 in the data set with ddy male mouse (2000 mg/kg intravenous, 6 hrs); 0 in the data set with ddy male mouse (2000 mg/kg intravenous, 24 hrs). Also, the “Died number with a lapse of time” value was determined as 0 in the data set on ddy male mouse (2000 mg/kg intravenous, 2 days); 0 in the data set on ddy male mouse (2000 mg/kg intravenous, 3 days); 0 in the data set with ddy male mouse (2000 mg/kg intravenous, 4 days); 0 in the data set on ddy male mouse (2000 mg/kg intravenous, 5 days); 0 with ddy male mouse (2000 mg/kg intravenous, 6 days); 0 in the data set on ddy male mouse (2000 mg/kg intravenous, 7 days). The Final death rate with ddy male mouse (500 mg/kg intravenous) is recorded as 0/3; in the data set with ddy male mouse (1000 mg/kg intravenous) it was 3/3; in the data set with ddy male mouse (2000 mg/kg intravenous) it was 3/3.
As to `CC(=O)NC1C(O)CC(O)(C(=O)O)OC1C(O)C(O)CO` (stereo not shown) [Barium N-acetylneuraminate], the mortality at 168 h in data set [1] (500 mg/kg intravenous) is 100%.
